Key:
Test in all cases: relative viability (nuclei count vs DMSO), 5 days (fraction); higher = more cells survive
[1] = compound: COc1cc2ncn(-c3cc(OCc4ccccc4C(F)(F)F)c(C(N)=O)s3)c2cc1OC + CS(=O)(=O)CCNCc1ccc(-c2ccc3ncnc(Nc4ccc(OCc5cccc(F)c5)c(Cl)c4)c3c2)o1 [Lapatinib] (partner 2 µM)
Summary of the method: (§1)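 Medians of duplicate plates are given as relative viability. That measure is the nuclei count in treated wells divided by the count in vehicle wells. Counts were taken on 4× images of lung cancer cell lines in 1536-well plates, 5 days after pin-tool dosing the day after seeding with one drug alone or a fixed anchor-drug dose plus five library-drug doses (not always all listed) in √10 steps.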

[2] = compound: COc1cc2ncn(-c3cc(OCc4ccccc4C(F)(F)F)c(C(N)=O)s3)c2cc1OC + C[C@@H](Oc1cc(-c2cnn(C3CCNCC3)c2)cnc1N)c1c(Cl)ccc(F)c1Cl [Crizotinib] (partner 1 µM)
Summary of the method: as §1

[3] = compound: COc1cc2ncn(-c3cc(OCc4ccccc4C(F)(F)F)c(C(N)=O)s3)c2cc1OC + Cc1cc(Nc2cc(N3CCN(C)CC3)nc(Sc3ccc(NC(=O)C4CC4)cc3)n2)n[nH]1 [Tozasertib] (partner 0.1 µM)
Summary of the method: as §1

[4] = compound: COc1cc2ncn(-c3cc(OCc4ccccc4C(F)(F)F)c(C(N)=O)s3)c2cc1OC + Nc1ncn([C@H]2C[C@H](O)[C@@H](CO)O2)c(=O)n1 [Decitabine] (partner 2 µM)
Summary of the method: as §1

Cell Line | relative viability ([1]; first compound 0.05 µM) | relative viability ([1]; first compound 0.1581 µM) | relative viability ([1]; first compound 0.5 µM) | relative viability ([1]; first compound 1.581 µM) | relative viability ([1]; first compound 5 µM) | relative viability ([2]; first compound 0.05 µM) | relative viability ([2]; first compound 0.1581 µM) | relative viability ([2]; first compound 0.5 µM) | relative viability ([2]; first compound 1.581 µM) | relative viability ([2]; first compound 5 µM) | relative viability ([3]; first compound 0.05 µM) | relative viability ([3]; first compound 0.1581 µM) | relative viability ([3]; first compound 0.5 µM) | relative viability ([3]; first compound 1.581 µM) | relative viability ([3]; first compound 5 µM) | relative viability ([4]; first compound 0.05 µM) | relative viability ([4]; first compound 0.1581 µM) | relative viability ([4]; first compound 0.5 µM) | relative viability ([4]; first compound 1.581 µM) | relative viability ([4]; first compound 5 µM)
NCI-H2126 | 0.772 | 0.776 | 0.636 | 0.352 | 0.244 | 1.05 | 1 | 0.849 | 0.419 | 0.264 | 0.756 | 0.908 | 0.521 | 0.218 | 0.245 | 0.571 | 0.605 | 0.556 | 0.261 | 0.227
NCI-H2170 | 0.262 | 0.241 | 0.244 | 0.221 | 0.2 | 1.25 | 1.15 | 0.599 | 0.268 | 0.258 | 0.619 | 0.745 | 0.309 | 0.193 | 0.26 | 0.49 | 0.458 | 0.285 | 0.151 | 0.166
NCI-H2347 | 0.943 | 0.788 | 0.858 | 0.507 | 0.62 | 0.58 | 0.736 | 0.603 | 0.537 | 0.385 | 0.464 | 0.622 | 0.264 | 0.372 | 0.363 | 0.556 | 0.589 | 0.531 | 0.499 | 0.482
NCI-H2405 | 1.12 | 0.882 | 0.669 | 0.402 | 0.323 | 0.84 | 0.682 | 0.595 | 0.357 | 0.463 | 0.88 | 0.803 | 0.368 | 0.325 | 0.327 | 0.754 | 0.704 | 0.506 | 0.373 | 0.324
NCI-H3122 | 1.04 | 0.58 | 0.479 | 0.224 | 0.244 | 0.245 | 0.288 | 0.23 | 0.186 | 0.173 | 0.359 | 0.392 | 0.211 | 0.286 | 0.284 | 0.373 | 0.426 | 0.193 | 0.14 | 0.103
PC-3 [JPC-3] | 0.443 | 0.508 | 0.37 | 0.227 | 0.263 | 0.987 | 1.01 | 0.778 | 0.34 | 0.27 | 0.892 | 0.856 | 0.4 | 0.33 | 0.369 | 0.779 | 0.842 | 0.653 | 0.396 | 0.43
